From US8404708B2, “Dual NK1/NK3 receptor antagonists” (Hoffmann-La Roche Inc., priority 2004, dated 2013)
Read-outs that look alike come from different tables or passages of the source.

Assays:
[1] = molecular target: T1, Recombinant human NK3 (hNK3) receptor (Homo sapiens, UniProt P29371); assay: NK3 receptor binding, [3H]SR142801 displacement, membrane preparations
T1 construct: expressed in transfected cells
T1 sequence (P29371 1-465): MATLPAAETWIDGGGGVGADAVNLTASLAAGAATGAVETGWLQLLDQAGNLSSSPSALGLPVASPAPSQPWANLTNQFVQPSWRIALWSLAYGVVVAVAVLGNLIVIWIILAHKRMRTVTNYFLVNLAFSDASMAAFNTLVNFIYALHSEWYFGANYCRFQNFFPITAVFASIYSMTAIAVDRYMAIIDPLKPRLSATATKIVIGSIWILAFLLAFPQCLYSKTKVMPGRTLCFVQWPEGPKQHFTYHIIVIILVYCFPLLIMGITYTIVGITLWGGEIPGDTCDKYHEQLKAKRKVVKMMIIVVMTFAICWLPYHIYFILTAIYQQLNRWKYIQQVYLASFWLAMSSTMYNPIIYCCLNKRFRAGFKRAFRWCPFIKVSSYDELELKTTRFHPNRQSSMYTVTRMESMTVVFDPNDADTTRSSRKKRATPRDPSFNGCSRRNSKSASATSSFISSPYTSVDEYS
Procedure, shortened: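 hNK3 membranes (~2.5 μg/well) incubated 90 min at room temperature in 50 mM Tris-HCl pH 7.4 with 0.1% BSA, 4 mM MnCl2, 1 μM phosphoramidon. Nonspecific binding defined with 10 μM SB222200; bound [3H]SR142801 separated by filtration on PEI-soaked GF/C filters and counted by scintillation.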

human NK1 receptor = human NK1 receptor (Homo sapiens, UniProt P25103); assay: NK1 receptor binding, [3H]substance P displacement, CHO cell membranes
Sequence of human NK1 receptor (P25103 whole entry): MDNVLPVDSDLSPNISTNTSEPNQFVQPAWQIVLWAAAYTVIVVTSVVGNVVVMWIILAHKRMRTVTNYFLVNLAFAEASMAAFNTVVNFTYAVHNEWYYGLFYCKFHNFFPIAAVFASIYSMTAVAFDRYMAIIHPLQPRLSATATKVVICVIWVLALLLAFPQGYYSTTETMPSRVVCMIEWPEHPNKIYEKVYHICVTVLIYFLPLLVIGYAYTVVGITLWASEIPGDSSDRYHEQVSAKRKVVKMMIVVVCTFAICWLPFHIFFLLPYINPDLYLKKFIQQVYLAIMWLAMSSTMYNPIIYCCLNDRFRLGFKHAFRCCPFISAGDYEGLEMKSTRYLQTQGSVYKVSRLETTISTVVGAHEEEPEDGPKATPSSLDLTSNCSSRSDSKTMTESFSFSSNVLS

[2] = second value of the cell pKi NK1/NK3, hNK3 receptor, [3H]SR142801
[3] = first value of the cell pKi NK1/NK3, human NK1 receptor, [3H]substance P
[4] = second value of the cell NK1/NK3, read-out: pKi NK3 (converted)
[5] = first value of the cell NK1/NK3, read-out: pKi NK1 (converted)

SMILES | Ki [1, 2] | Ki (human NK1 receptor; [3]) | Ki [1, 4] | Ki (human NK1 receptor; [5])
Cc1ccccc1-c1cc(NC[C@H](C)O)ncc1N(C)C(=O)C(C)(C)c1cc(C(F)(F)F)cc(C(F)(F)F)c1 [Example 120, (S)-2-(3,5-Bis-trifluoromethyl-phenyl)-N-[6-(2-hydroxy-propylamino)-4-o-tolyl-pyridin-3-yl]-N-methyl-isobutyramide] | 10 nM | 1.38 nM |  | 
Cc1cc(C)cc(C(C)(C)C(=O)N(C)c2cnc(N3C[C@H](O)C[C@H]3CO)cc2-c2ccccc2Cl)c1 [Example 10, (2S,4R)-N-[4-(2-Chloro-phenyl)-6-(4-hydroxy-2-hydroxymethyl-pyrrolidin-1-yl)-pyridin-3-yl]-2-(3,5-dimethyl-phenyl)-N-methyl-isobutyramide] | 3.63 nM | 2.14 nM |  | 
CN(C(=O)C(C)(C)c1cc(F)cc(C(F)(F)F)c1)c1cnc(N2C[C@H](O)C[C@H]2CO)cc1-c1ccccc1Cl [Example 5, (2S,4R)-N-[4-(2-Chloro-phenyl)-6-(4-hydroxy-2-hydroxymethyl-pyrrolidin-1-yl)-pyridin-3-yl]-2-(3-fluoro-5-trifluoromethyl-phenyl)-N-methyl-isobutyramide] | 1.74 nM | 1.55 nM |  | 
CCCCCN(CCO)c1cc(-c2ccccc2Cl)c(N(C)C(=O)C(C)(C)c2cc(C(F)(F)F)cc(C(F)(F)F)c2)cn1 [Example 149, 2-(3,5-Bis-trifluoromethyl-phenyl)-N-{4-(2-chloro-phenyl)-6-[(2-hydroxy-ethyl)-pentyl-amino]-pyridin-3-yl}-N-methyl-isobutyramide] | 6.17 nM | 1.29 nM |  | 
Cc1cc(F)ccc1-c1cc(N2CCC[C@H]2CO)ncc1N(C)C(=O)C(C)(C)c1cc(F)cc(F)c1 [Example 28, (S)-2-(3,5-Difluoro-phenyl)-N-[4-(4-fluoro-2-methyl-phenyl)-6-(2-hydroxymethyl-pyrrolidin-1-yl)-pyridin-3-yl]-N-methyl-isobutyramide] | 3.98 nM | 2.82 nM |  | 
CN(C(=O)C(C)(C)c1cc(C(F)(F)F)cc(C(F)(F)F)c1)c1cnc(N2C[C@@H](O)C[C@H]2CO)cc1-c1ccc(F)cc1Cl [Example 235, (2S,4S)-2-(3,5-Bis-trifluoromethyl-phenyl)-N-[4-(2-chloro-4-fluoro-phenyl)-6-(4-hydroxy-2-hydroxymethyl-pyrrolidin-1-yl)-pyridin-3-yl]-N-methyl-isobutyramide] |  |  | 1.26 nM | 1.66 nM
CN(C(=O)C(C)(C)c1cc(C(F)(F)F)cc(C(F)(F)F)c1)c1cnc(N2C[C@H](O)C[C@H]2CO)cc1-c1cccc(Cl)c1Cl [Example 229, (2S,4R)-2-(3,5-Bis-trifluoromethyl-phenyl)-N-[4-(2,3-dichloro-phenyl)-6-(4-hydroxy-2-hydroxymethyl-pyrrolidin-1-yl)-pyridin-3-yl]-N-methyl-isobutyramide] |  |  | 1.86 nM | 2.95 nM

Further lines, results first:

Ki [1, 2] | Ki (human NK1 receptor; [3]) | Ki [1, 4] | Ki (human NK1 receptor; [5]) | SMILES
 |  | 2.19 nM | 2.63 nM | CN(C(=O)C(C)(C)c1cc(C(F)(F)F)cc(C(F)(F)F)c1)c1cnc(N2CC[C@H](O)[C@H]2CO)cc1-c1cc(Cl)ccc1Cl [Example 270, (2R,3S)-2-(3,5-Bis-trifluoromethyl-phenyl)-N-[4-(2,5-dichloro-phenyl)-6-(3-hydroxy-2-hydroxymethyl-pyrrolidin-1-yl)-pyridin-3-yl]-N-methyl-isobutyramide]
 |  | 1.48 nM | 2.82 nM | CN(C(=O)C(C)(C)c1cc(C(F)(F)F)cc(C(F)(F)F)c1)c1cnc(N2CCC[C@H]2CO)cc1-c1ccc(Cl)cc1Cl [Example 283, (S)-2-(3,5-Bis-trifluoromethyl-phenyl)-N-[4-(2,4-dichloro-phenyl)-6-(2-hydroxymethyl-pyrrolidin-1-yl)-pyridin-3-yl]-N-methyl-isobutyramide]
 |  | 15.8 nM | 1.51 nM | CN(C(=O)C(C)(C)c1cc(C(F)(F)F)cc(C(F)(F)F)c1)c1cnc(N2C[C@@H](O)C[C@H]2CO)cc1-c1ccccc1 [Example 247, (2S,4S)-2-(3,5-Bis-trifluoromethyl-phenyl)-N-[6-(4-hydroxy-2-hydroxymethyl-pyrrolidin-1-yl)-4-phenyl-pyridin-3-yl]-N-methyl-isobutyramide]
